{"source": "patent US7879863B2", "about": "“Aniline derivatives” (Ajinomoto Co., Inc., priority 2004, dated 2011)", "key": {"[1]": {"tested_on": "DSS-induced enteritis model", "test": "Efficacy evaluation in DSS-induced enteritis model", "assay_type": "in vivo, female CBA mice", "settings": "mice, 5% DSS, relative to non-treatment group = 100%, mean ± standard error", "text": "Efficacy evaluation in DSS-induced enteritis model\nThe dextran sodium sulfate (DSS)-induced enteritis model was subjected to evaluation by a partly-modified methods of Gastroenterology, 98, 694-702 (1990) and Cytokine, 11, 890-896 (1998). A 5 (w/v) % DSS (manufactured by Sigma, MW 5,000) solution was freely taken by female CBA mice (CHARLES RIVER LABORATORIES JAPAN, INC.) for a given period to induce enteritis. A solution of the test compound adjusted to the objective concentration with a 0.5 (w/v) % tragacanth gum (TG) solution was orally administered at 5 mL/kg. Upon autopsy, the length, weight and the like of the large intestine were evaluated and used as an index of the onset of inflammatory enteritis. As a control, a mouse, to which a 0.5 (w/v) % TG solution was orally administered at 5 mL/kg instead of the test compound, was used. The length and weight of the large intestine are expressed as the relative value when the average value of the non-treatment group is 100%. As a Reference Example, the values obtained by oral administration of a positive control drug, salazosulfapyridine, instead of the test compound are shown. […] For testing the significant difference, Dunnett's t-test was used, and statistic significance as shown by P<0.05 and P<0.01 relative to the TG control group is shown in the Table with * and **, respectively."}, "[2]": {"biological_target": "T1, human activated tissue kallikrein (Homo sapiens, UniProt P06870)", "T1 construct": "6xHis (C); made in house; host or cells: baculovirus / Sf21 insect cells", "T1 sequence (P06870 25-262)": "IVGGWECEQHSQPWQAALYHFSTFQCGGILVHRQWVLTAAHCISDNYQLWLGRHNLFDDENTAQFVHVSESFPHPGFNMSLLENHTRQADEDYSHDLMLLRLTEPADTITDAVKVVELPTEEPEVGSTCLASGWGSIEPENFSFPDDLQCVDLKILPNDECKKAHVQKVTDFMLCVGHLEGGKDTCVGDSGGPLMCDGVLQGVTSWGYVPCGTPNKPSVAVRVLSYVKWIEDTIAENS", "test": "Measurement of tissue kallikrein inhibitory activity", "assay_type": "biochemical", "settings": "activated tissue kallikrein activity (initial rate) inhibited by 50%; substrate D-valyl-L-leucyl-L-arginyl-p-nitroanilide; 37° C.", "experimental": "Measurement of tissue kallikrein inhibitory activity\nExpression and purification of human activated tissue kallikrein was performed according to the method of Angermann (A. Angermann et al., Eur. J. Biochem., 206, 225-233 (1992)). That is, a gene was prepared by adding 6 residues of histidine to the C-terminal side of human pancreas kallikrein gene (D. Fukuchima et al, Biochemistry, 24, 8037-8043 (1985)), and tissue prokallikrein was expressed by a system using a baculovirus-insect cell (Sf21). Purified human tissue kallikrein was obtained from the culture supernatant by purification using a nickel chelate column (Ni-NTA, QIAGEN K. K.), digestion with TPCK trypsin and further nickel chelate column. To a solution (100 μL) of the human activated tissue kallikrein adjusted to 0.0625 μg/mL with an assay buffer (100 mM tris-hydrochloride buffer (pH 8.4) containing 0.2M NaCl, 0.02% Tween 20, and 0.1% PEG 6000) was added an assay buffer (containing 2% DMSO) solution (50 μL) of the test compound adjusted to the objective concentration, and the mixture was incubated at 37° C. for 10 minutes (min=minutes). Then, a 4 mM solution (50 μL) of D-valyl-L-leucyl-L-arginyl-p-nitroanilide hydrochloride (BACHEM AG) adjusted with the assay buffer was added, the absorbance was measured and the reaction rate was determined. As a control, a DMSO solution (50 μL) was added instead of the solution of the test compound. Absorbance was measured at a wavelength of 405 nm at 60 second intervals for 90 min using a Benchmark Plus Microplate Reader (BIO RAD). The negative logarithm value (abbreviated as pIC50) of the test compound concentration when the activated tissue kallikrein activity (initial rate) was inhibited by 50% without addition of the test compound was used as an index of the activated tissue kallikrein inhibitory activity."}, "[3]": {"tested_on": "acetic acid writhing model", "test": "Efficacy evaluation in acetic acid writhing model", "assay_type": "in vivo, male ICR mice", "settings": "mice, writhing number 5 to 20 min after 0.9% acetic acid i.p., mean ± standard error", "experimental": "Efficacy evaluation in acetic acid writhing model\nThe acetic acid writhing model was subjected to evaluation according to the method of European Journal of Pharmacology, 352, 47-52 (1998). To be specific, a solution of the test compound adjusted to the objective concentration with a 0.5 (w/v) % tragacanth gum solution was orally administered to male ICR mice (CHARLES RIVER LABORATORIES JAPAN, INC.) at 5 mL/kg, and a 0.9% acetic acid solution adjusted with a physiological saline was intraperitoneally administered 60 min later at 5 mL/kg. The number of writhing for 15 min from 5 min to 20 min after administration of a 0.9% acetic acid solution was counted and taken as the writhing number of the test compound. A mouse, to which a 0.5 (w/v) % tragacanth gum (TG) solution was orally administered at 5 ml/kg instead of the test compound, was used as a control. The suppression rate (%) was calculated by subtracting the relative value of each mouse from the relative value when the average value of the control group is 100%. As a Reference Example, the value obtained by oral administration of a positive control drug, indomethacin, instead of the test compound is shown. […] For testing the significant difference, Dunnett's t-test was used, and statistic significance as shown by P<0.05 and P<0.01 relative to the TG control group is shown in the Table with * and **, respectively."}}, "note": "Marks after values point to notes of the source that are not given here."}
{"smiles": "CCN1CCC(O)c2cc(C(F)(F)F)ccc21", "note": "(centres unmarked) [Compound E-6]", "values": [{"measurement": "large intestine length (%)", "setting": "[1]; 10 mg/kg oral", "result": "85.2 ± 2.4** %"}, {"measurement": "large intestine weight (%)", "setting": "[1]; 10 mg/kg oral", "result": "117.5 ± 5.1** %"}, {"measurement": "large intestine length (%)", "setting": "[1]; 30 mg/kg oral", "result": "87.9 ± 2.0** %"}, {"measurement": "large intestine weight (%)", "setting": "[1]; 30 mg/kg oral", "result": "110.7 ± 4.1** %"}, {"measurement": "IC50", "setting": "[2]", "result": 251, "unit": "nM"}, {"measurement": "suppression rate (%)", "setting": "[3]; 3 mg/kg oral", "result": "58.7 ± 7.0** %"}, {"measurement": "suppression rate (%)", "setting": "[3]; 10 mg/kg oral", "result": "58.7 ± 5.8** %"}, {"measurement": "suppression rate (%)", "setting": "[3]; 30 mg/kg oral", "result": "64.9 ± 8.3** %"}]}
